Data from patent publication US20170086736A1, “METHODS AND SYSTEMS USING NON-LABELED ANTIMETABOLITES AND ANALOGS THEREOF AS THERANOSTIC AGENTS” (The Johns Hopkins University, priority 2014, published 2017).

Legend:
[1] = patients, repetitive infusions, single dose 3 g/m^2 over three hours, up to eight doses; cited from earlier work
[2] = CEST MRI of drugs in PBS solution (in vitro phantom); format: physicochemical; conditions: for offset of CEST contrast corresponding to NH2 / offset of CEST contrast corresponding to OH: PBS solution, 20 mM, pH 7.4, 37° C., B1=3.6 μT, 3 s
Excerpt: This would of course correspond only to an mM or μM change for the drug and would not be detectable on the large MRI signal of 55 M water molecules (110 M protons). However, for every saturated proton leaving from the solute to water, an intact proton relocates from water to the solute, a process so-called chemical or proton exchange, and subsequently gets saturated again, which will be transferred to the water again in the next exchange. If the exchange rate is fast enough, this continuous process can lead to great signal amplification of the NMR signal carried by the agent, even up to thousands of times (depending on the exchange rate). This can then cause a several percentage decrease in the water signal, allowing imaging of the low-concentration agent with the sensitivity of the water signal. The percentage of water signal decrease, or CEST contrast, is traditionally described by magnetization transfer ratio asymmetry (MTRasym) defined by MTRasym=(S^−Δω−S^+Δω)/S0, where […] are the MRI signal with RF irradiation at particular offsets +Δω and −Δω respectively, and So is that acquired without RF saturation (element (d) of FIG. 1). Because having detectable exchangeable protons (at an appropriate rate at an adequate concentration) is a requirement for generating CEST MRI signal, it thus opens the possibility to detect natural biocompatible molecules by their CEST signal, potentially improving the clinical translatability.
Elements (a)-(d) of FIG. 1 show an illustration of CEST contrast (taken from reference [^1] with permission). […] However, this process is repeated continuously, leading to effect amplification of magnitude depending on the exchange rate (ksw). The CEST contrast can be quantified by a NMR spectrum element (b), a z spectrum in element (c) of frequency dependence of normalized saturated water signal Ssat/S0, with S0 the non-saturated signal) or, an MTRasym plot in element (d). Elements (e)-(f) show CEST detection of drugs through their carried exchangeable protons on NH2 (blue) and OH (red) as exemplified by araC (left) and Gem (right) in PBS solution (20 mM, pH 7.4) at 37° C. using a standard CEST MRI method (RF pulse field strength (B1)=3.6 μT and duration =3 s). […] Elements (f)-(g) of FIG. 1 show the CEST contrast of them as quantified by z-spectra and MTRasym plots respectively, showing strong CEST contrast at ˜1 and ˜2 ppm corresponding to OH and NH2 respectively, which appear partially overlapped at pH 7.4 but can be resolved at low saturation power.
Other drugs, including prodrugs and drug modulators, as well as the drug carriers, are intended to be included within the general scope of this invention. Many of them have exchangeable protons such as OH, NH and NH2 (FIG. 1). Thus, in one embodiment, the water exchangeable proton corresponds to at least one of an OH, NH2 or NH group. The water-exchangeable proton can include at least one of an OH, NH2 or NH group. Other antitumor categories and the biochemical drug modulators (a non-toxic agent that can enhance the effect of drugs when used together, but has no effect when used alone) as listed in Table 1 are also intended to be within the scope of the current invention.

[3] = single dose of 800 mg/kg (i.p.); cited from earlier work
[4] = in vivo; cited from earlier work

Structure (SMILES)	cerebellar toxicity [1]	offset of CEST contrast corresponding to NH2 [2]	offset of CEST contrast corresponding to OH [2]	offset at which the maximum CEST signal could be detected ([2]; at low pH)	accumulation of gemcitabine in tumor [3]	maximum tolerated dose (MTD) [4]
Nc1ccn([C@@H]2O[C@H](CO)[C@@H](O)[C@@H]2O)c(=O)n1 [araC, Cytarabine]	no noticeable cerebellar toxicity	~2 ppm	~1 ppm			
Nc1ccn([C@@H]2O[C@H](CO)[C@@H](O)C2(F)F)c(=O)n1 [gemcitabine, Gemcitabine]		~2 ppm	~1 ppm	3.2 ppm	up to several mM	2200 m^g/m2
